Reference: ChEMBL document CHEMBL4118098, “Discovery of DS28120313 as a potent orally active hepcidin production inhibitor: Design and optimization of novel 4,6-disubstituted indazole derivatives” (Bioorg Med Chem Lett, 2017)

Legend:
[1] = biological target: Serine/threonine-protein kinase pim-3 (Homo sapiens) (UniProt Q86V86); assay: Inhibition of PIM3 (unknown origin) at 0.45 uM relative to control
[2] = biological target: Calcium/calmodulin-dependent protein kinase type IV (Homo sapiens) (UniProt Q16566); assay: Inhibition of CAMK4 (unknown origin) at 0.45 uM relative to control
[3] = biological target: T1, Tyrosine-protein kinase TXK (Homo sapiens) (UniProt P42681); assay: Inhibition of TXK (unknown origin) at 0.19 uM relative to control
T1 sequence (whole entry): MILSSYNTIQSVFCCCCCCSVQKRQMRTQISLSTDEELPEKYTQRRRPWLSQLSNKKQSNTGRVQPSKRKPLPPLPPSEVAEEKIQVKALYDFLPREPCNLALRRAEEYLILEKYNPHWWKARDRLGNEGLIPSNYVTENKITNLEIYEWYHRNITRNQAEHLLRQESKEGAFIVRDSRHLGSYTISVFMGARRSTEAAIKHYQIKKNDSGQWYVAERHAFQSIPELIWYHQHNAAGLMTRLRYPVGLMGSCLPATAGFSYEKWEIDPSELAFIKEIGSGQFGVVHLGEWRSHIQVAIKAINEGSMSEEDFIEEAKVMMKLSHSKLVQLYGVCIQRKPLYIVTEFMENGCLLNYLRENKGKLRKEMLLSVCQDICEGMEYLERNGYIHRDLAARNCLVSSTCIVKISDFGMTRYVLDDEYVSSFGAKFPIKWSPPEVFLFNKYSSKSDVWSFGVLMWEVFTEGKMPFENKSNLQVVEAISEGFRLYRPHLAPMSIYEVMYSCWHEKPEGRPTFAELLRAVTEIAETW

[4] = test system: Proto-oncogene tyrosine-protein kinase receptor Ret (Homo sapiens), P07949 [V804L]; assay: Inhibition of Ret V804L mutant (unknown origin) at 0.19 uM relative to control
[5] = biological target: Receptor-type tyrosine-protein kinase FLT3 (Homo sapiens) (UniProt P36888); assay: Inhibition of FLT3 (unknown origin) at 0.19 uM relative to control
[6] = biological target: Calcium/calmodulin-dependent protein kinase type II subunit beta (Homo sapiens) (UniProt Q13554); assay: Inhibition of CAMK2 (unknown origin) at 0.19 uM relative to control
[7] = biological target: Receptor tyrosine-protein kinase erbB-4 (Homo sapiens) (UniProt Q15303); assay: Inhibition of HER4 (unknown origin) at 0.19 uM relative to control
[8] = biological target: Dual specificity tyrosine-phosphorylation-regulated kinase 3 (Homo sapiens) (UniProt O43781); assay: Inhibition of DYRK3 (unknown origin) at 0.19 uM relative to control
[9] = biological target: Ribosomal protein S6 kinase alpha-6 (Homo sapiens) (UniProt Q9UK32); assay: Inhibition of RSK4 (unknown origin) at 0.19 uM relative to control
[10] = biological target: NT-3 growth factor receptor (Homo sapiens) (UniProt Q16288); assay: Inhibition of TRKC (unknown origin) at 0.19 uM relative to control
[11] = biological target: Protein kinase C alpha type (Homo sapiens) (UniProt P17252); assay: Inhibition of PKC-alpha (unknown origin) at 0.19 uM relative to control
[12] = biological target: Fibroblast growth factor receptor 1 (Homo sapiens) (UniProt P11362); assay: Inhibition of FGFR1 (unknown origin) at 0.19 uM relative to control
[13] = biological target: Tyrosine-protein kinase Fes/Fps (Homo sapiens) (UniProt P07332); assay: Inhibition of FES (unknown origin) at 0.19 uM relative to control
[14] = biological target: Casein kinase I isoform gamma-2 (Homo sapiens) (UniProt P78368); assay: Inhibition of CK1-gamma2 (unknown origin) at 0.19 uM relative to control
[15] = biological target: Inhibitor of nuclear factor kappa-B kinase subunit epsilon (Homo sapiens) (UniProt Q14164); assay: Inhibition of IKBKE (unknown origin) at 0.19 uM relative to control
[16] = test system: Tyrosine-protein kinase ABL1 (Homo sapiens), P00519 [G250E]; assay: Inhibition of ABL1 G250E mutant (unknown origin) at 0.164 uM relative to control
[17] = biological target: Tyrosine-protein kinase ITK/TSK (Homo sapiens) (UniProt Q08881); assay: Inhibition of ITK (unknown origin) at 0.164 uM relative to control
[18] = biological target: AMP-activated protein kinase, AMPK (Homo sapiens) (UniProt P54646+O43741+P54619+Q9UGJ0+Q9Y478+Q13131+Q9UGI9); assay: Inhibition of AMPK (unknown origin) at 0.164 uM relative to control; type: protein-complex assay
[19] = biological target: Protein-tyrosine kinase 2-beta (Homo sapiens) (UniProt Q14289); assay: Inhibition of PYK2 (unknown origin) at 0.164 uM relative to control
[20] = biological target: Serine/threonine-protein kinase MARK2 (Homo sapiens) (UniProt Q7KZI7); assay: Inhibition of MARK2 (unknown origin) at 0.164 uM relative to control
[21] = biological target: Serine/threonine-protein kinase Nek9 (Homo sapiens) (UniProt Q8TD19); assay: Inhibition of NEK9 (unknown origin) at 0.164 uM relative to control
[22] = biological target: Ephrin type-B receptor 4 (Homo sapiens) (UniProt P54760); assay: Inhibition of EPHB4 (unknown origin) at 0.164 uM relative to control
[23] = biological target: T1, Tyrosine-protein kinase TXK (Homo sapiens); assay: Inhibition of TXK (unknown origin) at 0.164 uM relative to control
[24] = Fraction unbound in mouse plasma; type: ADME, cell-free
[25] = test system: Tyrosine-protein kinase ABL1 (Homo sapiens), P00519 [Y253F]; assay: Inhibition of ABL1 Y253F mutant (unknown origin) at 0.164 uM relative to control
[26] = biological target: RAC-gamma serine/threonine-protein kinase (Homo sapiens) (UniProt Q9Y243); assay: Inhibition of AKT3 (unknown origin) at 0.164 uM relative to control
[27] = biological target: Casein kinase I isoform delta (Homo sapiens) (UniProt P48730); assay: Inhibition of CK1-delta (unknown origin) at 0.164 uM relative to control
[28] = test system: Leucine-rich repeat serine/threonine-protein kinase 2 (Homo sapiens), Q5S007 [G2019S]; assay: Inhibition of LRRK2 G2019S mutant (unknown origin) at 0.164 uM relative to control
[29] = biological target: Epidermal growth factor receptor (Homo sapiens) (UniProt P00533); assay: Inhibition of EGFR (unknown origin) at 0.164 uM relative to control
[30] = biological target: Tyrosine-protein kinase receptor UFO (Homo sapiens) (UniProt P30530); assay: Inhibition of AXL (unknown origin) at 0.164 uM relative to control
[31] = biological target: Receptor tyrosine-protein kinase erbB-4 (Homo sapiens) (UniProt Q15303); assay: Inhibition of HER4 (unknown origin) at 0.164 uM relative to control
[32] = test system: Proto-oncogene tyrosine-protein kinase receptor Ret (Homo sapiens), P07949 [Y791F]; assay: Inhibition of RET Y791F mutant (unknown origin) at 0.164 uM relative to control

Cc1n[nH]c(C)c1-c1ccc2c(NC(=O)c3ccc(N4CCN(C)CC4)cc3)n[nH]c2c1
inhibition [1]: -2.3%
inhibition [2]: 0%

Cc1[nH]nc(C2CC2)c1-c1ccc2c(-c3ccc(N4CCN(C)CC4)nc3)n[nH]c2c1
inhibition [3]: -8.3%
inhibition [4]: 7%
inhibition [5]: 77.3%
inhibition [6]: 1%
inhibition [7]: -8.7%
inhibition [8]: 1.7%
inhibition [9]: -2%
inhibition [10]: 42%
inhibition [11]: -1.7%
inhibition [12]: 10.3%
inhibition [13]: -5%
inhibition [14]: 3.3%
inhibition [15]: 1%

COC(=O)Nc1cc(-c2c(C3CC3)n[nH]c2C)cc2[nH]ncc12
inhibition [16]: 7.3%
inhibition [17]: 6%
inhibition [18]: 10.7%
inhibition [19]: 2.7%
inhibition [20]: -4.7%
inhibition [21]: 0.3%
inhibition [22]: -2.3%
inhibition [23]: 1.3%
fraction unbound [24]: 0.24
inhibition [25]: 6.7%
inhibition [26]: -2%
inhibition [27]: 4.7%
inhibition [28]: 2.3%
inhibition [29]: -2%
inhibition [30]: 4%
inhibition [31]: -7.7%
inhibition [32]: 6%
